Source: ChEMBL document CHEMBL1201862, “PubChem BioAssay data set” (2004)
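A five-concentration, 48-hour dose response in 96-well plates underlies each endpoint, interpolated linearly between surrounding concentrations. GI50: concentration for 50% inhibition of growth.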 Calls of active or inactive are those of the source. Rule as the data show it: active = GI50 up to about 1.1 µM and inactive = higher.

Columns and labels:
Test in all cases: growth of human tumour cells (NCI), 48 h
[1] = tested on: CAKI-1
[2] = tested on: MDA-MB-435
[3] = tested on: OVCAR-5
[4] = tested on: ACHN
[5] = tested on: SF-295
[6] = tested on: SK-MEL-5
[7] = tested on: HT-29
[8] = tested on: HCT-116
[9] = tested on: PC-3
[10] = tested on: SR
[11] = tested on: COLO 205
[12] = tested on: KM12
[13] = tested on: SNB-19
[14] = tested on: OVCAR-4
[15] = tested on: A498
[16] = tested on: SK-MEL-2
[17] = tested on: LOX IMVI
[18] = tested on: IGROV-1
[19] = tested on: K562
[20] = tested on: RPMI-8226

Row | SMILES | GI50 [1] | GI50 [2] | GI50 [3] | GI50 [4] | GI50 [5] | GI50 [6] | GI50 [7] | GI50 [8] | GI50 [9] | GI50 [10] | GI50 [11] | GI50 [12] | GI50 [13] | GI50 [14] | GI50 [15] | GI50 [16] | GI50 [17] | GI50 [18] | GI50 [19] | GI50 [20]
1 | Cc1c(/C=N\NC(=S)NCCNC(=S)N/N=C\c2c(C)n(C)n(-c3ccccc3)c2=O)c(=O)n(-c2ccccc2)n1C | > 100 µM (inactive) | 92.5 µM (inactive) | > 100 µM (inactive) | > 100 µM (inactive) | > 100 µM (inactive) | > 100 µM (inactive) | > 100 µM (inactive) | > 100 µM (inactive) | > 100 µM (inactive) | > 100 µM (inactive) | > 100 µM (inactive) | > 100 µM (inactive) | > 100 µM (inactive) | > 100 µM (inactive) | > 100 µM (inactive) | 22.4 µM (inactive) | – | – | – | –
2 | Cc1ccc(F)cc1NC(=O)O/N=C(\Cl)C(C)C | 1.72 µM (inactive) | 13 µM (inactive) | 15.4 µM (inactive) | 2.14 µM (inactive) | 28.5 µM (inactive) | 6.97 µM (inactive) | 14.6 µM (inactive) | 5.28 µM (inactive) | 18 µM (inactive) | – | 1.9 µM (inactive) | 16.9 µM (inactive) | 35.5 µM (inactive) | 16 µM (inactive) | 20 µM (inactive) | 19.1 µM (inactive) | 1.98 µM (inactive) | 17.2 µM (inactive) | 1.97 µM (inactive) | 2.17 µM (inactive)
3 | CC(C)(C)NC(=O)CCC1C(C(=O)NC(C)(C)C)C2(Cl)C(Cl)=C(Cl)C1(Cl)C2(Cl)Cl (stereo not given) | – | > 100 µM (inactive) | > 100 µM (inactive) | > 100 µM (inactive) | > 100 µM (inactive) | > 100 µM (inactive) | > 100 µM (inactive) | > 100 µM (inactive) | > 100 µM (inactive) | > 100 µM (inactive) | > 100 µM (inactive) | > 100 µM (inactive) | > 100 µM (inactive) | > 100 µM (inactive) | > 100 µM (inactive) | > 100 µM (inactive) | > 100 µM (inactive) | > 100 µM (inactive) | > 100 µM (inactive) | > 100 µM (inactive)
4 | COc1ccc2[nH]cc(CCNC(=O)[C@H](Cc3ccccc3)NC(=O)[C@@H](NCC(F)(F)F)C(C)C)c2c1 | – | 19.8 µM (inactive) | 18.3 µM (inactive) | 28.2 µM (inactive) | 11.2 µM (inactive) | – | 16.7 µM (inactive) | 16.5 µM (inactive) | 18.2 µM (inactive) | 36.2 µM (inactive) | 17.9 µM (inactive) | 18.5 µM (inactive) | 28.6 µM (inactive) | 16.3 µM (inactive) | – | 19.4 µM (inactive) | 22.1 µM (inactive) | 21.2 µM (inactive) | 29.7 µM (inactive) | 8.17 µM (inactive)
5 | C=CCC1(C(=O)OC)CCC/C(=N\O)C1 (stereo not given) | > 10 µM (inactive) | > 10 µM (inactive) | – | > 10 µM (inactive) | > 10 µM (inactive) | > 10 µM (inactive) | > 10 µM (inactive) | > 10 µM (inactive) | > 10 µM (inactive) | > 10 µM (inactive) | > 10 µM (inactive) | > 10 µM (inactive) | > 10 µM (inactive) | > 10 µM (inactive) | – | – | > 10 µM (inactive) | > 10 µM (inactive) | > 10 µM (inactive) | > 10 µM (inactive)
6 | COc1ccc2oc(=O)c(-c3cc4c(c(C)n3)c(=O)oc3ccc(OC)cc34)cc2c1 | 70.8 µM (inactive) | > 100 µM (inactive) | – | 27.2 µM (inactive) | 95.7 µM (inactive) | > 100 µM (inactive) | 80.5 µM (inactive) | > 100 µM (inactive) | > 100 µM (inactive) | > 100 µM (inactive) | > 100 µM (inactive) | > 100 µM (inactive) | 25.5 µM (inactive) | – | – | > 100 µM (inactive) | > 100 µM (inactive) | > 100 µM (inactive) | > 100 µM (inactive) | > 100 µM (inactive)
7 | N#Cc1nc(CCCN2C(=O)c3ccccc3C2=O)oc1N | > 100 µM (inactive) | > 100 µM (inactive) | > 100 µM (inactive) | > 100 µM (inactive) | > 100 µM (inactive) | > 100 µM (inactive) | > 100 µM (inactive) | > 100 µM (inactive) | > 100 µM (inactive) | > 100 µM (inactive) | > 100 µM (inactive) | – | > 100 µM (inactive) | > 100 µM (inactive) | – | > 100 µM (inactive) | > 100 µM (inactive) | > 100 µM (inactive) | > 100 µM (inactive) | > 100 µM (inactive)
8 | COc1ccc(NC(C)=O)c(C(=O)CCNC(C)=O)c1 | > 100 µM (inactive) | > 100 µM (inactive) | > 100 µM (inactive) | > 100 µM (inactive) | > 100 µM (inactive) | > 100 µM (inactive) | > 100 µM (inactive) | > 100 µM (inactive) | > 100 µM (inactive) | > 100 µM (inactive) | > 100 µM (inactive) | > 100 µM (inactive) | > 100 µM (inactive) | > 100 µM (inactive) | > 100 µM (inactive) | > 100 µM (inactive) | > 100 µM (inactive) | > 100 µM (inactive) | – | > 100 µM (inactive)
9 | CN1C(=O)C(O)C[C@@H]1c1ccc(F)cc1 (stereo not given in full) | > 100 µM (inactive) | > 100 µM (inactive) | > 100 µM (inactive) | > 100 µM (inactive) | > 100 µM (inactive) | > 100 µM (inactive) | > 100 µM (inactive) | > 100 µM (inactive) | > 100 µM (inactive) | > 100 µM (inactive) | > 100 µM (inactive) | – | > 100 µM (inactive) | > 100 µM (inactive) | – | > 100 µM (inactive) | > 100 µM (inactive) | > 100 µM (inactive) | – | > 100 µM (inactive)
10 | COc1cc2c(cc1OCCCCCCCCN1C(=O)c3cccc4cccc(c34)C1=O)N=C[C@@H]1CCCN1C2=O | 13.3 µM (inactive) | 14.3 µM (inactive) | 20.4 µM (inactive) | 16 µM (inactive) | 15.6 µM (inactive) | 12.7 µM (inactive) | 15.7 µM (inactive) | 19.1 µM (inactive) | 7.45 µM (inactive) | 4.07 µM (inactive) | 4.71 µM (inactive) | 16.3 µM (inactive) | 35.3 µM (inactive) | 0.171 µM (active) | – | 14.6 µM (inactive) | 6.89 µM (inactive) | 3.11 µM (inactive) | 3.87 µM (inactive) | 2.96 µM (inactive)
11 | CN(C)c1ccc(/C=C/c2ccc3ccccc3[n+]2C)cc1 | – | 4.21 µM (inactive) | 7.01 µM (inactive) | 5.62 µM (inactive) | 2.95 µM (inactive) | 3.06 µM (inactive) | 3.37 µM (inactive) | 1.81 µM (inactive) | 1.57 µM (inactive) | 1.77 µM (inactive) | – | 3.42 µM (inactive) | 4.31 µM (inactive) | – | 20.1 µM (inactive) | 1.48 µM (inactive) | – | 3.54 µM (inactive) | 0.891 µM (active) | –
12 | O=C(c1ccccc1)C1C[C@H]2CO[C@H](c3ccccc3)N2C1=O (stereo not given in full) | > 100 µM (inactive) | > 100 µM (inactive) | > 100 µM (inactive) | > 100 µM (inactive) | > 100 µM (inactive) | > 100 µM (inactive) | > 100 µM (inactive) | > 100 µM (inactive) | > 100 µM (inactive) | > 100 µM (inactive) | > 100 µM (inactive) | > 100 µM (inactive) | > 100 µM (inactive) | > 100 µM (inactive) | – | > 100 µM (inactive) | > 100 µM (inactive) | > 100 µM (inactive) | > 100 µM (inactive) | > 100 µM (inactive)
13 | COc1cc(C2c3cc4c(cc3OC(NCCO)C2C)OCO4)cc(OC)c1O (stereo not given) | 19.2 µM (inactive) | 2.1 µM (inactive) | 30.7 µM (inactive) | – | 5.48 µM (inactive) | 4.86 µM (inactive) | 7.11 µM (inactive) | 5.06 µM (inactive) | 8.79 µM (inactive) | 6.12 µM (inactive) | 21.2 µM (inactive) | 6.78 µM (inactive) | 29.2 µM (inactive) | > 100 µM (inactive) | – | 4.79 µM (inactive) | – | 7.11 µM (inactive) | – | 3.23 µM (inactive)
14 | Cc1ccc(/C=C2/N/C(=N\N=C/c3ccccc3)NC2=O)cc1 | 38.5 µM (inactive) | 24.2 µM (inactive) | > 100 µM (inactive) | 17.3 µM (inactive) | 28.9 µM (inactive) | 35 µM (inactive) | 46.3 µM (inactive) | 28.6 µM (inactive) | 48.5 µM (inactive) | 30.6 µM (inactive) | 56.5 µM (inactive) | > 100 µM (inactive) | 25.8 µM (inactive) | 14.8 µM (inactive) | – | 39.4 µM (inactive) | 39.1 µM (inactive) | 51.6 µM (inactive) | 34.3 µM (inactive) | 16.2 µM (inactive)
15 | O=C1OC(c2ccccc2)=N/C1=C/c1cccs1 | – | > 100 µM (inactive) | > 100 µM (inactive) | > 100 µM (inactive) | > 100 µM (inactive) | – | > 100 µM (inactive) | – | > 100 µM (inactive) | 70 µM (inactive) | – | 56 µM (inactive) | 61.9 µM (inactive) | 41 µM (inactive) | – | 49 µM (inactive) | – | > 100 µM (inactive) | 30.4 µM (inactive) | 16.4 µM (inactive)
16 | CCC1(N)C(=O)OCc2c1cc1n(c2=O)Cc2cc3ccccc3nc2-1 (stereo not given) | 2.84 µM (inactive) | 54.6 µM (inactive) | 44.5 µM (inactive) | 3.73 µM (inactive) | 5.31 µM (inactive) | 5.21 µM (inactive) | 15 µM (inactive) | 4.67 µM (inactive) | 15.2 µM (inactive) | – | 30.5 µM (inactive) | 46.1 µM (inactive) | 7.67 µM (inactive) | 50 µM (inactive) | 4.74 µM (inactive) | > 85.7 µM (inactive) | 4.78 µM (inactive) | 6.56 µM (inactive) | 18.9 µM (inactive) | 32.7 µM (inactive)
